Read-outs that look alike come from different tables or passages of the source. Where no end group is shown, it is not given here.
How the values were obtained:
HLA-A*0301 [1] = target: T1, HLA-A*0301 (Homo sapiens, UniProt P04439); assay: Competition based cellular binding assay, HLA-A*0301 (B-cell line EKR); details: for HLA binding Affinity (Table 5): HLA type A3; for Peptide Binding Affinity / IC50: HLA-A*0301, IC50 category; for IC50: read-out: Peptide Binding Affinity
T1 construct: B-cell lines used are: CAA (A*0101), EKR (A*0301), BVR (A*1101), VIJF (A*2401); endogenous in cells; host or cells: B-cell line EKR

HLA-A*1101 [2] = target: T2, HLA-A*1101 (Homo sapiens, UniProt P04439, A114D/D185E/E176A/F33Y/L180Q/S129P/T187R); assay: Competition based cellular binding assay, HLA-A*1101 (B-cell line BVR); details: for HLA binding Affinity (Table 5): HLA type A11
T2 construct: B-cell lines used are: CAA (A*0101), EKR (A*0301), BVR (A*1101), VIJF (A*2401); endogenous in cells; host or cells: B-cell line BVR

HLA-A*0301 [3] = target: T1, HLA-A*0301; assay: Stability of peptide-HLA complex, binding at 4° C. and 20° C., HLA-A*0301; details: for HLA binding Stability (Table 5): HLA type A3; for Peptide Binding Stability: HLA-A*0301, IC50 at 20° C. vs 4° C.
Description: (§1) Stability of other peptide-HLA complexes was preferably determined as follows. […] Peptides of >50% of the initial complexes was lost within 2 hours were considered unstable. […] The rest was designated as unstable peptide binding.
(§2) Peptides 8-11 residues in length were selected based on typical anchor residues for HLA-A*0101, A*0301, A*1101 and HLA-A*2401 (Rammensee H G et al). The capacity of peptides to bind was tested in a competition based cellular binding assay as previously described (van der Burg S H et al 1995). FL-labeled reference peptides were synthesized as Cys-derivative (van der Burg S H et al 1995). Fluorescence labeled reference peptides used were: YLEPAC(FL)AK (SEQ ID NO: 87) (HLA-A*0101) and KVFPC(FL)ALINK (SEQ ID NO: 88) (HLA-A*1101) (Sette A et al), KVFPC(FL)ALINK (SEQ ID NO: 89) (HLAA*0301) (van der Burg S H et al 1995) and RYLKC(FL)QQLL (SEQ ID NO: 90) (A*2401) (Dai L C et al). B-cell lines used are: CAA (A*0101), EKR (A*0301), BVR (A*1101), VIJF (A*2401). The relative binding capacity of the peptides is expressed as the peptide concentration to inhibit 50% (1050) of the binding of the reference peptide. […] Peptide stabilization for HLA-A*0201 was performed as previously described (van der Burg S H et al, 1996). Peptides of >50% of the initial complexes was lost within 2 hours were considered unstable. Stability of other peptide-HLA complexes was determined as follows. Peptide binding was performed at 4° C. and 20° C. and 1050 were determined. […] The rest was designated as unstable peptide binding.

HLA-A*1101 [4] = target: T2, HLA-A*1101; assay: Stability of peptide-HLA complex, binding at 4° C. and 20° C., HLA-A*1101; details: for Peptide Binding Stability: HLA-A*1101, IC50 at 20° C. vs 4° C.; for HLA binding Stability (Table 5): HLA type A11
Description: as §1, §2

[5] = target: T3, 20S immuno-proteasomes from mouse B-cell line (RMA) (Mus musculus, UniProt O35955+P28063+P28076); assay: In vitro proteasome mediated digestion of 30-mers, mass spectrometry, immunoproteasome RMA; type: biochemical; details: 30 residue long precursor peptides
T3 construct: 20S immuno-proteasomes were purified from a mouse B-cell line (RMA); endogenous in cells; host or cells: RMA cells; 20S proteasome purified from them
Description: (§3) In the context of the invention, “being inefficiently processed by a proteasome” preferably means that within the first hour of digestion by a proteasome less than 1% of total digested peptide is found. The processing by a proteasome is preferably assessed by incubating a purified proteasome, more preferably a human proteasome with a peptide comprising the potential CTL epitope (30 amino acid length approximately) in a proteasome digestion buffer during at least one hour at 37° C. The reaction is subsequently stopped by adding trifluoroacetic acid. Analysis of the digested peptides is performed with electrospray ionization mass spectrometry (see example 1). Even more preferably, the human proteasome is an immunoproteasome from B-LCL JY cells (Kessler J H et al. 2001).
(§4) 20S immuno-proteasomes were purified from a mouse B-cell line (RMA) and a human B-LCL cell line (JY) and 20S household proteasomes were purified from human tumor cell line (HeLa) as described (Kessler J H et al 2001). To assess kinetics, digestions were performed with different incubation periods as indicated. Briefly, peptides containing the (potential) CTL epitopes (30 mers, 20 μg) were incubated with 1 μg of purified proteasome at 37° C. for 1 h, 4 h and 24 h in 300 μl proteasome digestion buffer, trifluoroacetic acid (30 μl) was added to stop the digestion and samples were stored at −20° C. before mass spectrometric analysis. Electrospray ionization mass spectrometry was performed on a hybrid quadrupole time-of-flight mass spectromter, a Q-TOF (Micromass), equipped with an on-line nanoelectrospray interface with an approximate flow rate of […] as described (Kessler J H et al 2001). The peaks in the mass spectrum were searched in the digested precursor peptide using the Biolynx/proteins software (Micromass) supplied with the mass spectrometer. The intensity of the peaks in the mass spectra was used to establish the relative amounts of peptides generated after proteasome digestion. The relative amounts of the peptides are given as a percentage of the total amount of peptide digested by the proteasome at the indicated incubation time. Major cleavage sites are defined as more than >1% of total digested peptide within the first hour.

[6] = target: T4, 20S immuno-proteasomes from human B-LCL cell line (JY) (Homo sapiens, UniProt P28062+P28065+P40306); assay: In vitro proteasome mediated digestion of 30-mers, mass spectrometry, immunoproteasome JY; type: biochemical; details: 30 residue long precursor peptides
T4 construct: purified from a mouse B-cell line (RMA) and a human B-LCL cell line (JY); endogenous in cells; host or cells: B-LCL JY cells; 20S proteasome purified from them
Description: as §3, §4

[7] = target: T5, 20S household proteasomes from human tumor cell line (HeLa) (Homo sapiens, UniProt P28072+P28074+Q99436); assay: In vitro proteasome mediated digestion of 30-mers, mass spectrometry, household proteasome HeLa; type: biochemical; details: 30 residue long precursor peptides
T5 construct: 20S household proteasomes were purified from human tumor cell line (HeLa); endogenous in cells; host or cells: HeLa cells; 20S proteasome purified from them
Description: as §3, §4

[8] = HLA-A*1101, IC50 category, read-out: Peptide Binding Affinity

Compound | HLA binding Affinity (Table 5) (HLA-A*0301 [1]) | Peptide Binding Affinity (HLA-A*0301 [1]) | Peptide Binding Affinity (HLA-A*1101 [2]; HLA-A*1101, IC50 category) | IC50 (HLA-A*0301 [1]) | HLA binding Affinity (Table 5) (HLA-A*1101 [2]) | IC50 (HLA-A*1101 [2]; [8]) | HLA binding Stability (Table 5) (HLA-A*0301 [3]) | Peptide Binding Stability (HLA-A*0301 [3]) | Peptide Binding Stability (HLA-A*1101 [4]) | Proteasomal Cleavage of C-terminus, IP (RMA) [5] | Proteasomal Cleavage of C-terminus, IP (JY) [6] | Proteasomal Cleavage of C-terminus, HH (HeLa) [7] | HLA binding Stability (Table 5) (HLA-A*1101 [4]) | IC50 (HLA-A*1101 [2])
LGFLHSGTAK [p53 111-120] | high | high | high |  |  |  | +/− (Peptides that displayed IC50 at 20 °C of more than twice the IC50 at 4 °C but IC50 < 15 μM were considered to bind with intermediate stability.) | +/− (Peptides that displayed IC50 at 20 °C of more than twice the IC50 at 4 °C but IC50 < 15 μM were considered to bind with intermediate stability.) | + (Stable peptides displayed IC50 at 20 °C that deviated <2 times of the IC50 at 4° C.) | + (Major cleavage sites are defined as more than >1% of total digested peptide within the first hour) | + (Major cleavage sites are defined as more than >1% of total digested peptide within the first hour) |  |  | 
CC(C)C[C@H](NC(=O)[C@@H](NC(=O)[C@H](CC(N)=O)NC(=O)[C@H](CC(N)=O)NC(=O)[C@H](CCC(=O)O)NC(=O)[C@@H]1CCCN1C(=O)[C@H](CC(C)C)NC(=O)[C@H](CC(C)C)NC(=O)[C@@H](N)CCCCN)C(C)C)C(=O)O [p53 24-32] |  |  |  |  |  |  |  |  |  | + (Major cleavage sites are defined as more than >1% of total digested peptide within the first hour) | + (Major cleavage sites are defined as more than >1% of total digested peptide within the first hour) | + (Major cleavage sites are defined as more than >1% of total digested peptide within the first hour) |  | 
GFLHSGTAK [p53 112-120] | int |  |  | 5 to 15 µM | int | 5 to 15 µM | − (The rest was designated as unstable peptide binding.) | − (The rest was designated as unstable peptide binding.) | − (The rest was designated as unstable peptide binding.) | + (Major cleavage sites are defined as more than >1% of total digested peptide within the first hour) | + (Major cleavage sites are defined as more than >1% of total digested peptide within the first hour) |  | − (The rest was designated as unstable peptide binding.) | 
CC[C@H](C)[C@H](NC(=O)[C@@H](NC(=O)[C@@H](NC(=O)[C@H](CS)NC(=O)[C@H](CC(=O)O)NC(=O)[C@H](CO)NC(=O)CN)[C@@H](C)O)[C@@H](C)O)C(=O)N[C@@H](Cc1c[nH]cn1)C(=O)N[C@@H](Cc1ccc(O)cc1)C(=O)O [p53 226-234] |  |  |  |  |  |  |  |  |  | + (Major cleavage sites are defined as more than >1% of total digested peptide within the first hour) |  | + (Major cleavage sites are defined as more than >1% of total digested peptide within the first hour) |  | 
GQSTSRHKK [p53 374-382] |  |  |  |  | int |  |  |  | +/− (Peptides that displayed IC50 at 20 °C of more than twice the IC50 at 4 °C but IC50 < 15 μM were considered to bind with intermediate stability.) |  |  |  | +/− (Peptides that displayed IC50 at 20 °C of more than twice the IC50 at 4 °C but IC50 < 15 μM were considered to bind with intermediate stability.) | 5 to 15 µM

More lines, main results first:

HLA binding Affinity (Table 5) (HLA-A*0301 [1]) | Peptide Binding Affinity (HLA-A*0301 [1]) | Peptide Binding Affinity (HLA-A*1101 [2]; HLA-A*1101, IC50 category) | IC50 (HLA-A*0301 [1]) | HLA binding Affinity (Table 5) (HLA-A*1101 [2]) | IC50 (HLA-A*1101 [2]; [8]) | Compound | HLA binding Stability (Table 5) (HLA-A*0301 [3]) | Peptide Binding Stability (HLA-A*0301 [3]) | Peptide Binding Stability (HLA-A*1101 [4]) | Proteasomal Cleavage of C-terminus, IP (RMA) [5] | Proteasomal Cleavage of C-terminus, IP (JY) [6] | Proteasomal Cleavage of C-terminus, HH (HeLa) [7] | HLA binding Stability (Table 5) (HLA-A*1101 [4]) | IC50 (HLA-A*1101 [2])
int |  |  | 5 to 15 µM |  |  | KGQSTSRHK [p53 373-381] | − (The rest was designated as unstable peptide binding.) | +/− (Peptides that displayed IC50 at 20 °C of more than twice the IC50 at 4 °C but IC50 < 15 μM were considered to bind with intermediate stability.) |  | + (Major cleavage sites are defined as more than >1% of total digested peptide within the first hour) | + (Major cleavage sites are defined as more than >1% of total digested peptide within the first hour) | + (Major cleavage sites are defined as more than >1% of total digested peptide within the first hour) |  | 
high | high |  |  | int | 5 to 15 µM | CC(C)C[C@H](NC(=O)[C@H](Cc1c[nH]cn1)NC(=O)[C@H](CO)NC(=O)[C@H](CO)NC(=O)[C@H](Cc1c[nH]cn1)NC(=O)[C@H](C)NC(=O)[C@@H](N)CCCNC(=N)N)C(=O)N[C@@H](CCCCN)C(=O)O [p53 363-370] | + (Stable peptides displayed IC50 at 20 °C that deviated <2 times of the IC50 at 4° C.) | + (Stable peptides displayed IC50 at 20 °C that deviated <2 times of the IC50 at 4° C.) | +/− (Peptides that displayed IC50 at 20 °C of more than twice the IC50 at 4 °C but IC50 < 15 μM were considered to bind with intermediate stability.) |  |  |  | +/− (Peptides that displayed IC50 at 20 °C of more than twice the IC50 at 4 °C but IC50 < 15 μM were considered to bind with intermediate stability.) | 
 | high |  |  |  |  | CSCC[C@H](NC(=O)[C@H](CCCCN)NC(=O)[C@H](CC(N)=O)NC(=O)[C@H](CC(C)C)NC(=O)[C@H](C)N)C(=O)N[C@@H](Cc1ccccc1)C(=O)N[C@@H](CS)C(=O)N[C@@H](CCC(N)=O)C(=O)N[C@@H](CC(C)C)C(=O)N[C@@H](C)C(=O)N[C@@H](CCCCN)C(=O)O [p53 129-139] |  | + (Stable peptides displayed IC50 at 20 °C that deviated <2 times of the IC50 at 4° C.) |  | + (Major cleavage sites are defined as more than >1% of total digested peptide within the first hour) | + (Major cleavage sites are defined as more than >1% of total digested peptide within the first hour) | + (Major cleavage sites are defined as more than >1% of total digested peptide within the first hour) |  | 

— patent US8663646B2, “P53 peptide vaccine” (priority 2007, dated 2014)
